# Experimental data taken from ChEMBL document CHEMBL5055666, “Tyrosine-Derived Novel Benzoxazine Active in a Rat Syngenic Mammary Tumor Model of Breast Cancer” (J Med Chem, 2021).
# How the values were obtained:
# MDA-MB-231 = assay: Antiproliferative activity against human MDA-MB-231 cells assessed as inhibition of cell growth incubated for 24 hrs by MTT assay; assay type: functional, cell-based; settings: MDA-MB-231, 24 h
# MCF7 = assay: Antiproliferative activity against human MCF7 cells assessed as inhibition of cell growth incubated for 24 hrs by MTT assay; assay type: functional, cell-based; settings: MCF7, 24 h
# Rattus norvegicus = assay: Toxicity in Sprague-Dawley rat inoculated with rat LA7 cells assessed as increase in uterine tissue at 10 mg/kg administered daily for 21 days; assay type: organism-based; settings: in vivo, 504 h, time 21 day
IC50 (MDA-MB-231) [µM],IC50 (MCF7) [µM],SMILES,Activity (Rattus norvegicus)
25.5,28.8,COc1ccc(C[C@H]2CSc3ccccc3N2Cc2ccc(OCCN(C)C)cc2)cc1,
> 50,45.8,CCN1c2ccccc2OC[C@@H]1Cc1ccc(OCCN2CCCC2)cc1,
31.3,83.6,COc1ccc(C[C@H]2COc3ccccc3N2Cc2ccc(OCCN3CCOCC3)cc2)cc1,
6.36,6.1,COc1ccc(C[C@H]2COc3ccc(C(F)(F)F)cc3N2Cc2ccc(OCCN3CCCCC3)cc2)cc1,
11.1,6.75,COc1ccc(C[C@H]2COc3ccccc3N2Cc2ccc(OCCN(C)C)cc2)cc1,
> 50,> 50,CN1c2ccccc2OC[C@@H]1Cc1ccc(OCCN2CCCCC2)cc1,
2.92,3.61,COc1ccc(C[C@H]2COc3ccc(F)cc3N2Cc2ccc(OCCN3CCCCC3)cc2)cc1,
> 50,> 50,COc1ccc(C[C@H]2CSc3ccccc3N2Cc2ccc(OCCN(C(C)C)C(C)C)cc2)cc1,
40.2,24.4,COc1ccc(C[C@H]2COc3ccccc3N2Cc2ccc(O)cc2)cc1,
> 50,20.5,CN(C)CCOc1ccc(C[C@H]2COc3ccccc3N2Cc2ccccc2)cc1,
> 50,> 50,CN1c2ccccc2OC[C@@H]1Cc1ccc(OCCN2CCCC2)cc1,
> 50,22,c1ccc(CN2c3ccccc3OC[C@@H]2Cc2ccc(OCCN3CCCCC3)cc2)cc1,
11,0.68,COc1ccc(C[C@H]2COc3ccccc3N2Cc2ccc(OCCN3CCCCC3)cc2)cc1,
0.83,77.6,COc1ccc(C[C@H]2COc3ccccc3N2Cc2ccc(OCCN(C(C)C)C(C)C)cc2)cc1,
47.4,> 50,Oc1ccc(C[C@H]2COc3ccccc3N2)cc1,
3.22,3.35,COc1ccc(C[C@H]2COc3cc(F)c(F)cc3N2Cc2ccc(OCCN3CCCC3)cc2)cc1,
36.4,> 50,COc1ccc(C[C@H]2COc3ccccc3N2)cc1,
,5.4,CC/C(=C(\c1ccccc1)c1ccc(OCCN(C)C)cc1)c1ccccc1 [TAMOXIFEN],Toxic
26.7,31.7,CCN(CC)CCOc1ccc(CN2c3ccccc3SC[C@@H]2Cc2ccc(OC)cc2)cc1,
2.64,2.6,COc1ccc(C[C@H]2COc3ccc(OC)cc3N2Cc2ccc(OCCN3CCCCC3)cc2)cc1,
40.2,24.4,Oc1ccc(C[C@H]2COc3ccccc3N2Cc2ccc(O)cc2)cc1,
45,39.1,CCN(CC)CCOCCOc1ccc(CN2c3ccccc3OC[C@@H]2Cc2ccc(OC)cc2)cc1,
> 50,21.3,COc1ccc(C[C@H]2COc3ccccc3N2Cc2ccc(OCCOCCN3CCCC3)cc2)cc1,

IC50 (MDA-MB-231) [µM],IC50 (MCF7) [µM],SMILES,Activity (Rattus norvegicus)
3.77,,CC(=O)O[C@H]1C(=O)[C@@]2(C)[C@H]([C@H](OC(=O)c3ccccc3)[C@]3(O)C[C@H](OC(=O)[C@H](O)[C@@H](NC(=O)c4ccccc4)c4ccccc4)C(C)=C1C3(C)C)[C@]1(OC(C)=O)CO[C@@H]1C[C@@H]2O [PACLITAXEL],
> 50,> 50,COc1ccc(C[C@H]2COc3ccccc3N2Cc2ccccc2)cc1,
4.87,6.3,COc1ccc(C[C@@H]2COc3ccccc3N2Cc2ccc(OCCN3CCCCC3)cc2)cc1,
10.9,30.8,COc1ccc(C[C@H]2CSc3ccccc3N2Cc2ccc(OCCN3CCCC3)cc2)cc1,
> 50,> 50,CN(C)CCOc1ccc(C[C@H]2COc3ccccc3N2C)cc1,
> 50,40.4,CC(C)N(CCOc1ccc(C[C@H]2COc3ccccc3N2Cc2ccccc2)cc1)C(C)C,
32.5,41.6,Oc1ccc(C[C@H]2COc3ccccc3N2Cc2ccccc2)cc1,
> 50,> 50,COc1ccc(C[C@H]2COc3ccccc3N2Cc2ccc(OS(=O)(=O)c3ccc(C)cc3)cc2)cc1,
3.23,3.34,COc1ccc(C[C@H]2COc3ccc(F)cc3N2Cc2ccc(OCCN3CCCC3)cc2)cc1,
0.97,6.95,CCN(CC)CCOc1ccc(CN2c3ccccc3OC[C@@H]2Cc2ccc(OC)cc2)cc1,
> 50,7.81,COc1ccc(C[C@H]2COc3ccccc3N2Cc2ccc(OCCOCCN3CCCCC3)cc2)cc1,
6.89,6.86,COc1ccc(C[C@H]2COc3ccc(C(F)(F)F)cc3N2Cc2ccc(OCCN3CCCC3)cc2)cc1,
10.1,18.1,COc1ccc(C[C@H]2COc3ccccc3N2Cc2ccc(OCCN3CCCCCC3)cc2)cc1,
> 50,21.1,c1ccc(CN2c3ccccc3OC[C@@H]2Cc2ccc(OCCN3CCCC3)cc2)cc1,
6.52,7.03,COc1ccc(C[C@@H]2COc3ccccc3N2Cc2ccc(OCCN3CCCC3)cc2)cc1,
> 50,5.5,COc1ccc(C[C@H]2COc3ccccc3N2Cc2ccc(OCCOCCN(C(C)C)C(C)C)cc2)cc1,
3.59,3.34,COc1ccc(C[C@H]2COc3ccc(OC)cc3N2Cc2ccc(OCCN3CCCC3)cc2)cc1,
> 50,> 50,COc1ccc(C[C@H]2COc3ccccc3N2C)cc1,
> 50,> 50,COc1ccc(C[C@H]2COc3ccccc3N2C(=O)c2ccc(N)cc2)cc1,
> 50,43.7,COc1ccc(C[C@H]2COc3ccccc3N2Cc2ccc(OCCO)cc2)cc1,
4.86,5.05,COc1ccc(C[C@H]2COc3cc(F)c(F)cc3N2Cc2ccc(OCCN3CCCCC3)cc2)cc1,
43.6,30.4,CCN1c2ccccc2OC[C@@H]1Cc1ccc(O)cc1,
12.2,17.4,COc1ccc(C[C@H]2CSc3ccccc3N2Cc2ccc(OCCN3CCCCC3)cc2)cc1,
